Measurements published in patent publication US9809625B2, “Immunomodulators” (BRISTOL-MYERS SQUIBB COMPANY, priority 2015, dated 2017).
Bridge positions count the residues as written; N and C are the ends. Square brackets hold non-standard residues; d marks the D form. Peptide text beside a SMILES is read from it. * marks the point of attachment. ξ: configuration not given here. Hyp = O=C(O)[C@@H]1C[C@@H](O)CN1; ξW = NC(Cc1c[nH]c2ccccc12)C(=O)O; NH(3-picolyl) = c1cncc(CN*)c1; NMeNle = CCCC[C@H](NC)C(=O)O; X7 = CC(C)(C)OC(=O)NCCCCCN*; Morpholide = C1CN(*)CCO1; NMeA = CN[C@@H](C)C(=O)O; Pyrrolidide = C1CCN(*)C1; Dap = NC[C@H](N)C(=O)O; X1 = CN(C)C1CCN(*)CC1; NHCH2cPr = C1CC1CN*; NHCH2CH2OH = OCCN*; X6 = O=C1CN(*)CCN1; βAla = NCCC(=O)O; Sar = CNCC(=O)O; NHBu = CCCCN*

biological target: T1, PD-1-Ig binding to PD-L1-TVMV-His (PD-L1-His) (Homo sapiens, UniProt Q9NZQ7); experiment: PD-1/PD-L1 Homogenous Time-Resolved Fluorescence (HTRF) binding assay; conditions: PD-1-Ig (20 nM)/PD-L1-His (10 nM), range classes
T1 construct: hPDL1(19-239)-TVMV-His; TVMV protease cleavage site (C); made in house; host or cells: HEK293T
T1 sequence (Q9NZQ7 with tags, fused parts or gaps): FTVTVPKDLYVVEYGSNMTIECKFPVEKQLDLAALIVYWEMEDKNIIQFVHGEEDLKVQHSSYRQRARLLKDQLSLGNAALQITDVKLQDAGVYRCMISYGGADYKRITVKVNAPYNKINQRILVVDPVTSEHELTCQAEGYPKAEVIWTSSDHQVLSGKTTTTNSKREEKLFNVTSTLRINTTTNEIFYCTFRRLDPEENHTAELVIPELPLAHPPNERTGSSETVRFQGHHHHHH
Text: Methods for Testing the Ability of Macrocyclic Peptides to Compete for the Binding of PD-1 to PD-L1 Using Homogenous Time-Resolved Fluorescence (HTRF) Binding Assays
The ability of the macrocyclic peptides of the present disclosure to bind to PD-L1 was investigated using a PD-1/PD-L1 Homogenous Time-Resolved Fluorescence (HTRF) binding assay.
Homogenous Time-Resolved Fluorescence (HTRF) Assays of Binding of Soluble PD-1 to Soluble PD-L1. Soluble PD-1 and soluble PD-L1 refers to proteins with carboxyl-end truncations that remove the transmembrane-spanning regions and are fused to heterologous sequences, specifically the Fc portion of the human immunoglobuling G sequence (Ig) or the hexahistidine epitope tag (His). All binding studies were performed in an HTRF assay buffer consisting of dPBS supplemented with 0.1% (w/v) bovine serum albumin and 0.05% (v/v) Tween-20. For the PD-1-Ig/PD-L1-His binding assay, inhibitors were pre-incubated with PD-L1-His (10 nM final) for 15 m in 4 μl of assay buffer, followed by addition of PD-1-Ig (20 nM final) in 1 μl of assay buffer and further incubation for 15 m. PD-L1 fusion proteins from either human, cynomologous macaques, mouse, or other species were used. HTRF detection was achieved using europium crypate-labeled anti-Ig monoclonal antibody (1 nM final) and allophycocyanin (APC) labeled anti-His monoclonal antibody (20 nM final). Antibodies were diluted in HTRF detection buffer and 5 μl was dispensed on top of binding reaction. The reaction was allowed to equilibrate for 30 minutes and signal (665 nm/620 nm ratio) was obtained using an EnVision fluorometer. Additional binding assays were established between PD-1-Ig/PD-L2-His (20 and 5 nM, respectively), CD80-His/PD-L1-Ig (100 and 10 nM, respectively) and CD80-His/CTLA4-Ig (10 and 5 nM, respectively). Binding/competition studies between biotinylated Compound No. 71 and human PD-L1-His were performed as follows. Macrocyclic peptide inhibitors were pre-incubated with PD-L1-His (10 nM final) for 60 minutes in 4 μl of assay buffer followed by addition of biotinylated Compound No. 71 (0.5 nM final) in 1 μl of assay buffer. Binding was allowed to equilibrate for 30 minutes followed by addition of europium crypated labeled Streptavidin (2.5 pM final) and APC-labeled anti-His (20 nM final) in 5 μl of HTRF buffer. The reaction was allowed to equilibrate for 30 m and signal (665 nm/620 nm ratio) was obtained using an EnVision fluorometer.
Recombinant Proteins. Carboxyl-truncated human PD-1 (amino acids 25-167) with a C-terminal human Ig epitope tag [hPD-1 (25-167)-3S-IG] and human PD-L1 (amino acids 18-239) with a C-terminal His epitope tag [hPD-L1(19-239)-tobacco vein mottling virus protease cleavage site (TVMV)-His] were expressed in HEK293T cells and purified sequentially by recombinant Protein A affinity chromatography and size exclusion chromatography. Human PD-L2-His (Sino Biologicals), CD80-His (Sino Biologicals), CTLA4-Ig (RnD Systems) were all obtained through commercial sources.

**Q.** With `CCCC[C@H]1C(=O)N(C)[C@@H](CCCC)C(=O)N[C@@H](CC(C)C)C(=O)N[C@H](C(=O)NCC(=O)NCCCCCNC(=O)OC(C)(C)C)CSCC(=O)N[C@@H](Cc2ccc(O)cc2)C(=O)N(C)[C@@H](C)C(=O)N[C@@H](CC(N)=O)C(=O)N2CCC[C@H]2C(=O)N[C@@H](CN)C(=O)N[C@@H](CC(C)C)C(=O)N2C[C@H](O)C[C@H]2C(=O)N[C@@H](Cc2c[nH]c3ccccc23)C(=O)NCC(=O)NC(Cc2c[nH]c3ccccc23)C(=O)N1C` (some centres unmarked) [Example 13112] ({CH2CO}-Y[NMeA]NP[Dap]L[Hyp]WG[ξW][NMeNle][NMeNle]LCG-X7; thioether N-14) as the molecule, how does the IC50 read?
**A.** Its IC50 is 10 to 60 nM.

**Q.** Which IC50 does the source give for `CCCC[C@H]1C(=O)N(C)[C@@H](CCCC)C(=O)N[C@@H](CC(C)C)C(=O)N[C@H](C(=O)N(C)CC(N)=O)CSCC(=O)N[C@@H](Cc2ccc(O)cc2)C(=O)N(C)[C@@H](C)C(=O)N[C@@H](CC(N)=O)C(=O)N2CCC[C@H]2C(=O)N[C@@H](CN)C(=O)N[C@@H](CC(C)C)C(=O)N2C[C@H](O)C[C@H]2C(=O)N[C@@H](Cc2c[nH]c3ccccc23)C(=O)NCC(=O)N[C@@H](Cc2c[nH]c3ccccc23)C(=O)N1C` [Example 13090] ({CH2CO}-Y[NMeA]NP[Dap]L[Hyp]WGW[NMeNle][NMeNle]LC[Sar]-NH2; thioether N-14) here?
**A.** The IC50 was 4 to 9.9 nM.

**Q.** For `CCCC[C@H]1C(=O)N(C)[C@@H](CCCC)C(=O)N[C@@H](CC(C)C)C(=O)N[C@H](C(=O)NCC(=O)NCCO)CSCC(=O)N[C@@H](Cc2ccc(O)cc2)C(=O)N(C)[C@@H](C)C(=O)N[C@@H](CC(N)=O)C(=O)N2CCC[C@H]2C(=O)N[C@@H](CN)C(=O)N[C@@H](CC(C)C)C(=O)N2C[C@H](O)C[C@H]2C(=O)N[C@@H](Cc2c[nH]c3ccccc23)C(=O)NCC(=O)NC(Cc2c[nH]c3ccccc23)C(=O)N1C` (some centres unmarked) [Example 13095] ({CH2CO}-Y[NMeA]NP[Dap]L[Hyp]WG[ξW][NMeNle][NMeNle]LCG-NHCH2CH2OH; thioether N-14), which IC50 is on record?
**A.** Its IC50 is 10 to 60 nM.

**Q.** Which IC50 does the source give for `CCCC[C@H]1C(=O)N(C)[C@@H](CCCC)C(=O)N[C@@H](CC(C)C)C(=O)N[C@H](C(=O)NCC(=O)N2CCC(N(C)C)CC2)CSCC(=O)N[C@@H](Cc2ccc(O)cc2)C(=O)N(C)[C@@H](C)C(=O)N[C@@H](CC(N)=O)C(=O)N2CCC[C@H]2C(=O)N[C@@H](CN)C(=O)N[C@@H](CC(C)C)C(=O)N2C[C@H](O)C[C@H]2C(=O)N[C@@H](Cc2c[nH]c3ccccc23)C(=O)NCC(=O)NC(Cc2c[nH]c3ccccc23)C(=O)N1C` (some centres unmarked) [Example 13103] ({CH2CO}-Y[NMeA]NP[Dap]L[Hyp]WG[ξW][NMeNle][NMeNle]LCG-X1; thioether N-14) here?
**A.** The IC50 was 10 to 60 nM.

**Q.** For `CCCC[C@H]1C(=O)N(C)[C@@H](CCCC)C(=O)N[C@@H](CC(C)C)C(=O)N[C@H](C(=O)NCC(=O)N2CCCC2)CSCC(=O)N[C@@H](Cc2ccc(O)cc2)C(=O)N(C)[C@@H](C)C(=O)N[C@@H](CC(N)=O)C(=O)N2CCC[C@H]2C(=O)N[C@@H](CN)C(=O)N[C@@H](CC(C)C)C(=O)N2C[C@H](O)C[C@H]2C(=O)N[C@@H](Cc2c[nH]c3ccccc23)C(=O)NCC(=O)N[C@@H](Cc2c[nH]c3ccccc23)C(=O)N1C` [Example 13085] ({CH2CO}-Y[NMeA]NP[Dap]L[Hyp]WGW[NMeNle][NMeNle]LCG-Pyrrolidide; thioether N-14), which IC50 is on record?
**A.** The IC50 was 10 to 60 nM.

**Q.** `CCCC[C@H]1C(=O)N(C)[C@@H](CCCC)C(=O)N[C@@H](CC(C)C)C(=O)N[C@H](C(=O)NCC(=O)NCc2cccnc2)CSCC(=O)N[C@@H](Cc2ccc(O)cc2)C(=O)N(C)[C@@H](C)C(=O)N[C@@H](CC(N)=O)C(=O)N2CCC[C@H]2C(=O)N[C@@H](CN)C(=O)N[C@@H](CC(C)C)C(=O)N2C[C@H](O)C[C@H]2C(=O)N[C@@H](Cc2c[nH]c3ccccc23)C(=O)NCC(=O)NC(Cc2c[nH]c3ccccc23)C(=O)N1C` (some centres unmarked) [Example 13094] ({CH2CO}-Y[NMeA]NP[Dap]L[Hyp]WG[ξW][NMeNle][NMeNle]LCG-{NH(3-picolyl)}; thioether N-14) was tested. Which IC50 did it give?
**A.** The IC50 was 10 to 60 nM.

**Q.** With `CCCC[C@H]1C(=O)N(C)[C@@H](CCCC)C(=O)N[C@@H](CC(C)C)C(=O)N[C@H](C(=O)NCC(=O)NCC2CC2)CSCC(=O)N[C@@H](Cc2ccc(O)cc2)C(=O)N(C)[C@@H](C)C(=O)N[C@@H](CC(N)=O)C(=O)N2CCC[C@H]2C(=O)N[C@@H](CN)C(=O)N[C@@H](CC(C)C)C(=O)N2C[C@H](O)C[C@H]2C(=O)N[C@@H](Cc2c[nH]c3ccccc23)C(=O)NCC(=O)NC(Cc2c[nH]c3ccccc23)C(=O)N1C` (some centres unmarked) [Example 13104] ({CH2CO}-Y[NMeA]NP[Dap]L[Hyp]WG[ξW][NMeNle][NMeNle]LCG-NHCH2cPr; thioether N-14) as the molecule, how does the IC50 read?
**A.** Its IC50 is 10 to 60 nM.

**Q.** `CCCC[C@H]1C(=O)N(C)[C@@H](CCCC)C(=O)N[C@@H](CC(C)C)C(=O)N[C@H](C(=O)NCC(=O)N2CCNC(=O)C2)CSCC(=O)N[C@@H](Cc2ccc(O)cc2)C(=O)N(C)[C@@H](C)C(=O)N[C@@H](CC(N)=O)C(=O)N2CCC[C@H]2C(=O)N[C@@H](CN)C(=O)N[C@@H](CC(C)C)C(=O)N2C[C@H](O)C[C@H]2C(=O)N[C@@H](Cc2c[nH]c3ccccc23)C(=O)NCC(=O)NC(Cc2c[nH]c3ccccc23)C(=O)N1C` (some centres unmarked) [Example 13114] ({CH2CO}-Y[NMeA]NP[Dap]L[Hyp]WG[ξW][NMeNle][NMeNle]LCG-X6; thioether N-14) was tested. Which IC50 did it give?
**A.** Its IC50 is 4 to 9.9 nM.

**Q.** With `CCCC[C@H]1C(=O)N(C)[C@@H](CCCC)C(=O)N[C@@H](CC(C)C)C(=O)N[C@H](C(=O)NCC(=O)N2CCOCC2)CSCC(=O)N[C@@H](Cc2ccc(O)cc2)C(=O)N(C)[C@@H](C)C(=O)N[C@@H](CC(N)=O)C(=O)N2CCC[C@H]2C(=O)N[C@@H](CN)C(=O)N[C@@H](CC(C)C)C(=O)N2C[C@H](O)C[C@H]2C(=O)N[C@@H](Cc2c[nH]c3ccccc23)C(=O)NCC(=O)N[C@@H](Cc2c[nH]c3ccccc23)C(=O)N1C` [Example 13087] ({CH2CO}-Y[NMeA]NP[Dap]L[Hyp]WGW[NMeNle][NMeNle]LCG-Morpholide; thioether N-14) as the molecule, how does the IC50 read?
**A.** The IC50 was 10 to 60 nM.

**Q.** For `CCCC[C@H]1C(=O)N(C)[C@@H](CCCC)C(=O)N[C@@H](CC(C)C)C(=O)N[C@H](C(=O)NCC(=O)NCCC(N)=O)CSCC(=O)N[C@@H](Cc2ccc(O)cc2)C(=O)N(C)[C@@H](C)C(=O)N[C@@H](CC(N)=O)C(=O)N2CCC[C@H]2C(=O)N[C@@H](CN)C(=O)N[C@@H](CC(C)C)C(=O)N2C[C@H](O)C[C@H]2C(=O)N[C@@H](Cc2c[nH]c3ccccc23)C(=O)NCC(=O)NC(Cc2c[nH]c3ccccc23)C(=O)N1C` (some centres unmarked) [Example 13110] ({CH2CO}-Y[NMeA]NP[Dap]L[Hyp]WG[ξW][NMeNle][NMeNle]LCG[βAla]-NH2; thioether N-14), which IC50 is on record?
**A.** The IC50 was 4 to 9.9 nM.

**Q.** With `CCCCNC(=O)CNC(=O)[C@@H]1CSCC(=O)N[C@@H](Cc2ccc(O)cc2)C(=O)N(C)[C@@H](C)C(=O)N[C@@H](CC(N)=O)C(=O)N2CCC[C@H]2C(=O)N[C@@H](CN)C(=O)N[C@@H](CC(C)C)C(=O)N2C[C@H](O)C[C@H]2C(=O)N[C@@H](Cc2c[nH]c3ccccc23)C(=O)NCC(=O)NC(Cc2c[nH]c3ccccc23)C(=O)N(C)[C@@H](CCCC)C(=O)N(C)[C@@H](CCCC)C(=O)N[C@@H](CC(C)C)C(=O)N1` (some centres unmarked) [Example 13100] ({CH2CO}-Y[NMeA]NP[Dap]L[Hyp]WG[ξW][NMeNle][NMeNle]LCG-NHBu; thioether N-14) as the molecule, how does the IC50 read?
**A.** The IC50 was 10 to 60 nM.
